According to patent US7122693B2, “Acetaldehyde acetal compounds, their synthesis, and uses thereof” (Shire BioChem Inc., priority 1988, dated 2006):
Several values for one entry are separate records, joined by “and”; a condition that tells them apart may be missing. Identical values can stand only once. Like-named read-outs stand apart in the source and are kept apart here.

Experiments:
Format in all cases: cell-based
HIV-1 in MT-4 cells [1] = experiment: Viable cell counts, cytolytic effect of HIV-1 on MT-4 cells; conditions: for viability at 2 µg/mL: Human immunodeficiency virus 1, MT4, 144 h
Experimental: (§1) In vitro testing was conducted on several of the compounds of this invention to determine their inhibitory properties. The concentrations reported are μg/ml in the incubation media which affect the susceptibility of a continuous line of T-cells developed at the Lady Davis Institute for Medical Research (Montreal) by Dr. Mark A. Wainberg toward infection by HIV-1 following a protocol similar to that of H. Mitsuya and S. Broder, “Inhibition of the in vitro infectivity and cytopathic effect of human T-lymphotropic virus type III/lymphadenopathy-associated virus (HTLV-III/LAV) by 2′3′-dideoxynucleosides”, Proc. Natl. Acad. Sci. USA, 83, pp. 1911–15 (1986). Protection of the cell line from infection was monitored by staining with monoclonal antibodies against viral proteins in the standard manner (Table 1). In all experiments, comparisons were made with the drug AZT as the control. In order to confirm the results, the drug effects were monitored by measuring reverse transcriptase (RT) activity in the U-937 line of human monocytic cells as assayed in the usual manner with tritiated thymidine triphosphate (TTP) (Table 2). The drug effects on cell viability as measured by the well-know cytolytic effects of HIV-1 on the MT-4 cell line was evaluated in the accepted manner (Table 1).

HIV-1 in MT-4 cells [2] = experiment: P-24 immunofluorescence in MT-4 cells (staining with monoclonal antibodies against viral proteins); conditions: 2 μg/ml
Experimental: as §1

HIV-1 in H-9 cells [3] = experiment: RT activity, HIV-1 production in H-9 cells (Table 3)
HIV-1 in MT-4 cells [4] = experiment: Reverse transcriptase assay in MT-4 cells; conditions: 2 μg/ml
HIV-1 in H-9 cells [5] = experiment: Reverse transcriptase assay, HIV-1 production in H-9 cells (Table 2); conditions: 2 μg/ml
[6] = MT-4 cells, HIV-1, 6 days in culture, 2 μg/ml of compound, read-out: Cell Viability %
[7] = 7 days in culture (row between 14 and 21)
[8] = MT-4 cells, HIV-1, 6 days in culture, 2 μg/ml of compound

## O=c1[nH]cnc2c1ncn2C1CSC(CO)O1 (stereo not drawn) [cis-LVI, Cis-2-hydroxymethyl-5-(6′-hydroxypurin-N-9′-yl)-1,3-oxathiolane]
HIV-1 in MT-4 cells [1]; [6]
  viability at 2 µg/mL: 11%

## Cc1cn(C2CC(N=[N+]=[N-])C(CO)O2)c(=O)[nH]c1=O (centres unmarked) [AZT, 3′-azido-2′,3′-dideoxythymidine, reference compound]
HIV-1 in MT-4 cells [2]; 3 days in culture
  % Immunofluorescent Cells (P-24): 1.0%
HIV-1 in MT-4 cells [2]; 6 days in culture
  % Immunofluorescent Cells (P-24): 1.0%
HIV-1 in H-9 cells [3]; inhibitor 20 μM
  RT activity (cpm) after 8 days: 633 cpm and 587 cpm
  RT activity (cpm) after 26 days: 821 cpm and 679 cpm
HIV-1 in MT-4 cells [4]; 3 days in culture
  RT Activity (CPM × 1000)/ml: 1.564 (CPM × 1000)/ml
HIV-1 in MT-4 cells [4]; 6 days in culture
  RT Activity (CPM × 1000)/ml: 1.748 (CPM × 1000)/ml
HIV-1 in H-9 cells [5]; 5 days in culture
  RT Activity (CPM × 1000)/ml: 3.346 (CPM × 1000)/ml
HIV-1 in H-9 cells [5]; [7]
  RT Activity (CPM × 1000)/ml: 2.997 (CPM × 1000)/ml
HIV-1 in H-9 cells [5]; 8 days in culture
  RT Activity (CPM × 1000)/ml: 3.414 (CPM × 1000)/ml
HIV-1 in H-9 cells [5]; 11 days in culture
  RT Activity (CPM × 1000)/ml: 2.918 (CPM × 1000)/ml
HIV-1 in H-9 cells [5]; 14 days in culture
  RT Activity (CPM × 1000)/ml: 8.320 (CPM × 1000)/ml
HIV-1 in H-9 cells [5]; 21 days in culture
  RT Activity (CPM × 1000)/ml: 3.111 (CPM × 1000)/ml
HIV-1 in H-9 cells [5]; 25 days in culture
  RT Activity (CPM × 1000)/ml: 15.88 (CPM × 1000)/ml
HIV-1 in H-9 cells [5]; 29 days in culture
  RT Activity (CPM × 1000)/ml: 32.08 (CPM × 1000)/ml
HIV-1 in H-9 cells [5]; 33 days in culture
  RT Activity (CPM × 1000)/ml: 612.2 (CPM × 1000)/ml
HIV-1 in H-9 cells [5]; 37 days in culture
  RT Activity (CPM × 1000)/ml: 878.2 (CPM × 1000)/ml
HIV-1 in H-9 cells [5]; 41 days in culture
  RT Activity (CPM × 1000)/ml: 994.0 (CPM × 1000)/ml
HIV-1 in H-9 cells [5]; 45 days in culture
  RT Activity (CPM × 1000)/ml: 32.91 (CPM × 1000)/ml
HIV-1 in MT-4 cells [1]; read-out: Cell Viability %, MT-4 cells, HIV-1, 6 days in culture, 2 μg/ml of compound
  viability at 2 µg/mL: 88.6%

## O=c1ccn(C2CSC(CO)O2)c(=O)[nH]1 (stereo not drawn) [cis-XVIII, Cis-2-hydroxymethyl-5-(uracil-N-1′-yl)-1,3-oxathiolane]
HIV-1 in MT-4 cells [1]; [6]
  viability at 2 µg/mL: 14%

## Nc1ccn(C2CSC(CO)O2)c(=O)n1 (stereo not drawn) [cis-XI, Cis-2-hydroxymethyl-5-(cytosin-1′-yl)-1,3-oxathiolane]
HIV-1 in MT-4 cells [2]; 3 days in culture
  % Immunofluorescent Cells (P-24): 1.0%
HIV-1 in MT-4 cells [2]; 6 days in culture
  % Immunofluorescent Cells (P-24): 7.6%
HIV-1 in MT-4 cells [4]; 3 days in culture
  RT Activity (CPM × 1000)/ml: 2.381 (CPM × 1000)/ml
HIV-1 in MT-4 cells [4]; 6 days in culture
  RT Activity (CPM × 1000)/ml: 2.301 (CPM × 1000)/ml
HIV-1 in H-9 cells [5]; 5 days in culture
  RT Activity (CPM × 1000)/ml: 3.077 (CPM × 1000)/ml
HIV-1 in H-9 cells [5]; [7]
  RT Activity (CPM × 1000)/ml: 2.399 (CPM × 1000)/ml
HIV-1 in H-9 cells [5]; 8 days in culture
  RT Activity (CPM × 1000)/ml: 5.853 (CPM × 1000)/ml
HIV-1 in H-9 cells [5]; 11 days in culture
  RT Activity (CPM × 1000)/ml: 3.560 (CPM × 1000)/ml
HIV-1 in H-9 cells [5]; 14 days in culture
  RT Activity (CPM × 1000)/ml: 2.872 (CPM × 1000)/ml
HIV-1 in H-9 cells [5]; 21 days in culture
  RT Activity (CPM × 1000)/ml: 2.907 (CPM × 1000)/ml
HIV-1 in H-9 cells [5]; 25 days in culture
  RT Activity (CPM × 1000)/ml: 4.020 (CPM × 1000)/ml
HIV-1 in H-9 cells [5]; 29 days in culture
  RT Activity (CPM × 1000)/ml: 3.756 (CPM × 1000)/ml
HIV-1 in H-9 cells [5]; 33 days in culture
  RT Activity (CPM × 1000)/ml: 3.803 (CPM × 1000)/ml
HIV-1 in H-9 cells [5]; 37 days in culture
  RT Activity (CPM × 1000)/ml: 4.193 (CPM × 1000)/ml
HIV-1 in H-9 cells [5]; 41 days in culture
  RT Activity (CPM × 1000)/ml: 4.515 (CPM × 1000)/ml
HIV-1 in H-9 cells [5]; 45 days in culture
  RT Activity (CPM × 1000)/ml: 3.441 (CPM × 1000)/ml
HIV-1 in MT-4 cells [1]; [8]
  Cell Viability %: 87.4%

## Nc1ccn(C2C[S+]([O-])C(CO)O2)c(=O)n1 (single isomer, unassigned) [cis-XII (b), Cis-2-hydroxymethyl-5-(cytosin-1′-yl)-3-oxo-1,3-oxathiolane]
HIV-1 in MT-4 cells [1]; [6]
  viability at 2 µg/mL: 14%

## Nc1ccn(C2COC(CO)O2)c(=O)n1 (stereo not drawn) [trans-(XXXVI), trans-2-hydromethyl-4-(cytosin-1′-yl)-1,3-dioxolane]
HIV-1 in H-9 cells [3]; inhibitor 10 μM
  RT activity (cpm) after 8 days: 4,608 cpm
  RT activity (cpm) after 12 days: 83,462 cpm
  RT activity (cpm) after 26 days: 312,478 cpm
HIV-1 in H-9 cells [3]; inhibitor 50 μM
  RT activity (cpm) after 8 days: 1,319 cpm
  RT activity (cpm) after 12 days: 758 cpm
  RT activity (cpm) after 26 days: 1,732 cpm

## Nc1ccn(C2CSC(CO)O2)c(=O)n1 (stereo not drawn) [trans-XI, trans-2-hydroxymethyl-5-(cytosin-1′-yl)-1,3-oxathiolane]
HIV-1 in MT-4 cells [1]; [8]
  Cell Viability %: 24%

## CN(C)C=Nc1ccn(C2CSC(CO)O2)c(=O)n1 (stereo not drawn) [cis-LIII, Cis-2-hydroxymethyl-5-(N-dimethylaminomethylenecytosin-1′-yl)-1,3-oxathiolane]
HIV-1 in MT-4 cells [1]; [6]
  viability at 2 µg/mL: 18%
